Test results as given in PubChem BioAssay AID192 (DTP/NCI, 2004).
“And” between values parts separate entries of the source, which are not always exact repeats. Equal values may be shown once. Toxic doses and inconclusive results are not listed.

Test system: BDF1 mice, B16 melanoma ip, median survival T/C
Test: NCI In Vivo Anticancer Drug Screen. Data for tumor model B16 Melanoma (intraperitoneal) in B6D2F1 (BDF1) mice
Conditions: endpoint: median survival time, higher = longer survival
Procedure, shortened: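 Transplantable tumor model; survival or tumor size measured; reported as T/C, treated over vehicle control.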

C1CN1c1nc(N2CC2)nc(N2CC2)n1
T/C (dose: 0.05 mg/kg/injection, schedule: Q01DX009 (ip), vehicle: saline): 97 % of control and 108 % of control | T/C (dose: 0.06 mg/kg/injection, schedule: Q01DX009 (ip), vehicle: saline): 103 % of control | T/C (dose: 0.06 mg/kg/injection, schedule: Q01DX009 (ip), vehicle: suspension in saline): 103 % of control | T/C (dose: 0.1 mg/kg/injection, schedule: Q01DX009 (ip), vehicle: saline): 103 % of control and 109 % of control and 120 % of control | T/C (dose: 0.12 mg/kg/injection, schedule: Q01DX009 (ip), vehicle: saline with Tween-80): 107 % of control | T/C (dose: 0.12 mg/kg/injection, schedule: Q01DX009 (ip), vehicle: suspension in saline): 100 % of control | T/C (dose: 0.13 mg/kg/injection, schedule: Q01DX009 (ip), vehicle: saline sonified): 94 % of control and 96 % of control | T/C (dose: 0.13 mg/kg/injection, schedule: Q01DX009 (ip), vehicle: saline with Tween-80): 102 % of control and 105 % of control | T/C (dose: 0.25 mg/kg/injection, schedule: Q01DX009 (ip), vehicle: saline sonified): 96 % of control and 100 % of control | T/C (dose: 0.25 mg/kg/injection, schedule: Q01DX009 (ip), vehicle: saline with Tween-80): 107 % of control and 108 % of control and 119 % of control | T/C (dose: 0.25 mg/kg/injection, schedule: Q01DX009 (ip), vehicle: suspension in saline): 108 % of control | T/C (dose: 0.3 mg/kg/injection, schedule: Q01DX009 (ip), vehicle: saline): 150 % of control | T/C (dose: 0.5 mg/kg/injection, schedule: Q01DX009 (ip), vehicle: saline sonified): 96 % of control and 101 % of control | T/C (dose: 0.5 mg/kg/injection, schedule: Q01DX009 (ip), vehicle: saline with Tween-80): 105 % of control and 114 % of control and 119 % of control | T/C (dose: 0.5 mg/kg/injection, schedule: Q01DX009 (ip), vehicle: suspension in saline): 124 % of control | T/C (dose: 0.5 mg/kg/injection, schedule: Q08DX002 (ip), vehicle: saline sonified): 98 % of control and 103 % of control | T/C (dose: 0.5 mg/kg/injection, schedule: Q08DX002 (ip), vehicle: saline with Tween-80): 100 % of control and 119 % of control | T/C (dose: 1.0 mg/kg/injection, schedule: Q01DX009 (ip), vehicle: suspension in saline): 109 % of control | T/C (dose: 1.0 mg/kg/injection, schedule: Q08DX002 (ip), vehicle: saline sonified): 108 % of control and 114 % of control | T/C (dose: 1.0 mg/kg/injection, schedule: Q08DX002 (ip), vehicle: saline with Tween-80): 102 % of control and 113 % of control and 116 % of control | T/C (dose: 2.0 mg/kg/injection, schedule: Q08DX002 (ip), vehicle: saline sonified): 105 % of control | T/C (dose: 2.0 mg/kg/injection, schedule: Q08DX002 (ip), vehicle: saline with Tween-80): 123 % of control | T/C (dose: 4.0 mg/kg/injection, schedule: Q08DX002 (ip), vehicle: saline with Tween-80): 90 % of control and 105 % of control

CSc1nc(N)nc2c1ncn2C1OC(CO)C(O)C1O (stereo not given)
T/C (dose: 100.0 mg/kg/injection, schedule: Q01DX009 (ip), vehicle: suspension in saline): 115 % of control | T/C (dose: 200.0 mg/kg/injection, schedule: Q01DX009 (ip), vehicle: suspension in saline): 110 % of control

CCc1cccc(CC)c1N1C(=O)C=CC1=O
T/C (dose: 0.2 mg/kg/injection, schedule: Q01DX009 (ip), vehicle: saline with Tween-80): 97 % of control | T/C (dose: 0.39 mg/kg/injection, schedule: Q01DX009 (ip), vehicle: saline with Tween-80): 99 % of control | T/C (dose: 0.78 mg/kg/injection, schedule: Q01DX009 (ip), vehicle: saline with Tween-80): 92 % of control | T/C (dose: 1.56 mg/kg/injection, schedule: Q01DX009 (ip), vehicle: saline with Tween-80): 86 % of control and 90 % of control

CCCCCCCCCCCCCCCC(=O)N(CCCN)C(C)CCCN(CC)CC (stereo not given)
T/C (dose: 12.5 mg/kg/injection, schedule: Q01DX009 (ip), vehicle: Klucel (hydroxypropylcellulose) (HPC)): 105 % of control | T/C (dose: 25.0 mg/kg/injection, schedule: Q01DX009 (ip), vehicle: Klucel (hydroxypropylcellulose) (HPC)): 100 % of control | T/C (dose: 50.0 mg/kg/injection, schedule: Q01DX009 (ip), vehicle: Klucel (hydroxypropylcellulose) (HPC)): 107 % of control | T/C (dose: 100.0 mg/kg/injection, schedule: Q01DX009 (ip), vehicle: Klucel (hydroxypropylcellulose) (HPC)): 101 % of control

CCN(CC)CCNc1ccc(C)c2sc3ccc(O)cc3c(=O)c12
T/C (dose: 12.5 mg/kg/injection, schedule: Q01DX009 (ip), vehicle: saline with Tween-80): 110 % of control | T/C (dose: 25.0 mg/kg/injection, schedule: Q01DX009 (ip), vehicle: saline with Tween-80): 161 % of control | T/C (dose: 50.0 mg/kg/injection, schedule: Q01DX009 (ip), vehicle: saline with Tween-80): 182 % of control | T/C (dose: 100.0 mg/kg/injection, schedule: Q01DX009 (ip), vehicle: saline with Tween-80): 172 % of control

O=c1[nH][nH]c(=O)n1O
T/C (dose: 130.0 mg/kg/injection, schedule: Q01DX009 (ip), vehicle: saline): 112 % of control | T/C (dose: 200.0 mg/kg/injection, schedule: Q01DX009 (ip), vehicle: saline): 103 % of control | T/C (dose: 300.0 mg/kg/injection, schedule: Q01DX009 (ip), vehicle: saline): 115 % of control

C=C(C)C(=O)OC1CCC2(C)C(CCC3C2CCC2(C)C(c4ccc(=O)oc4)CC4OC432)C1 (stereo not given)
T/C (dose: 1.25 mg/kg/injection, schedule: Q01DX009 (ip), vehicle: saline with Tween-80): 100 % of control | T/C (dose: 2.5 mg/kg/injection, schedule: Q01DX009 (ip), vehicle: saline with Tween-80): 94 % of control | T/C (dose: 5.0 mg/kg/injection, schedule: Q01DX009 (ip), vehicle: saline with Tween-80): 96 % of control | T/C (dose: 10.0 mg/kg/injection, schedule: Q01DX009 (ip), vehicle: saline with Tween-80): 107 % of control | T/C (dose: 20.0 mg/kg/injection, schedule: Q01DX009 (ip), vehicle: saline with Tween-80): 102 % of control
